Reference: article PMC11327196, “A phase 1 study to assess the absolute bioavailability, mass balance, pharmacokinetics, metabolism, and excretion of [^14C]-mobocertinib, an oral inhibitor of EGFR exon 20 insertion mutations, in healthy participants” (Investigational New Drugs, 2024)

Assays:
[1] = Period 2: urine PK (renal clearance, urinary recovery); assay type: in vivo, human
Description: After a washout of 8–9 days, participants returned to the clinic for Day − 1 of Period 2. On Day 1 of Period 2, after a fast of ≥ 10 h, participants received a single nominal dose of 160 mg (~ 100 µCi; whole body effective dose of 5.3 mrem for a 70-kg human) [^14C]-mobocertinib as a 70 mL oral solution. The actual doses administered ranged from 161 to 163 mg (92.4 to 93.9 µCi). Participants stayed in the clinic from Day − 1 until a discharge criterion (≥ 80% of the total administered radioactive dose was recovered in urine and feces or excretion of radioactivity in urine and feces combined had declined to ≤ 1% of the total administered dose per day for ≥ 2 consecutive intervals) was met, or up to 10 days postdose. To measure the total radioactivity and concentrations of mobocertinib, AP32960, and AP32914 in whole blood and plasma, 4 blood samples were collected predose, and at 0.5, 1, 2, 3, 4, 5, 6, 8, 12, 24, 36, 48, 72, 96, 120, 144, 168, 192, 216, and 240 h postdose; a fifth blood sample was collected for plasma metabolite profiling at predose and 1, 2, 4, 6, 12, 24, 48, 72, 96, 120, and 168 h postdose. Feces and urine were collected predose (feces within 48 h and urine within 24 h prior to dosing), 0–24 h (urine from 0–12 and 12–24 h), and then at 24-hour intervals up to 240 h postdose or until a discharge criterion was met. […] These 2 participants continued with at-home fecal sample collections. […]
Plasma, whole blood, and urine samples were assayed for mobocertinib, AP32960, and AP32914 concentrations using liquid chromatography-tandem mass spectrometry (Q2 Solutions, Ithaca, New York, USA). […] Urine and fecal samples were assayed for total radioactivity following the IV dose of [^14C]-mobocertinib in Period 1, and whole blood, plasma, urine, and fecal samples were assayed for total radioactivity following the oral dose of [^14C]-mobocertinib in Period 2 using liquid scintillation counting (LSC; Celerion, Lincoln, Nebraska, USA; LLOQs: Period 1 urine: 0.115–0.118 ng eq/g, feces: 0.720–0.759 ng eq/g; Period 2 whole blood: 87.3–112 ng eq/g, plasma: 116–132 ng eq/mL, urine: 37.8–46.8 ng eq/g, feces: 110–336 ng eq/g across participants). Urine and fecal samples collected in Period 1 that had total radioactivity concentration equivalents below the LLOQ of the Celerion LSC assay were sent to Pharmaron for measurement by AMS (LLOQ: urine: 0.0000253–0.00111 ng eq/g; feces: 0.000404–0.0278 ng eq/g across participants). […]
PK parameters for analytes in urine and feces were calculated using SAS Version 9.4 and included the cumulative amounts and percentages of the administered radioactive dose excreted as [^14C]-mobocertinib, [^14C]-AP32960, and [^14C]-AP32914 in urine and feces following IV dosing in Period 1 and oral dosing in Period 2. […]

[2] = Period 2: mass balance (total radioactivity in urine and feces); assay type: in vivo, human
Description: (§1) After a washout of 8–9 days, participants returned to the clinic for Day − 1 of Period 2. On Day 1 of Period 2, after a fast of ≥ 10 h, participants received a single nominal dose of 160 mg (~ 100 µCi; whole body effective dose of 5.3 mrem for a 70-kg human) [^14C]-mobocertinib as a 70 mL oral solution. The actual doses administered ranged from 161 to 163 mg (92.4 to 93.9 µCi). Participants stayed in the clinic from Day − 1 until a discharge criterion (≥ 80% of the total administered radioactive dose was recovered in urine and feces or excretion of radioactivity in urine and feces combined had declined to ≤ 1% of the total administered dose per day for ≥ 2 consecutive intervals) was met, or up to 10 days postdose. To measure the total radioactivity and concentrations of mobocertinib, AP32960, and AP32914 in whole blood and plasma, 4 blood samples were collected predose, and at 0.5, 1, 2, 3, 4, 5, 6, 8, 12, 24, 36, 48, 72, 96, 120, 144, 168, 192, 216, and 240 h postdose; a fifth blood sample was collected for plasma metabolite profiling at predose and 1, 2, 4, 6, 12, 24, 48, 72, 96, 120, and 168 h postdose. Feces and urine were collected predose (feces within 48 h and urine within 24 h prior to dosing), 0–24 h (urine from 0–12 and 12–24 h), and then at 24-hour intervals up to 240 h postdose or until a discharge criterion was met. […] These 2 participants continued with at-home fecal sample collections. One participant provided fecal samples until Day 13 (264–288 h interval) and one participant provided fecal samples until Day 19 (408–432 h interval), after which they met a discharge criterion.
(§2) Plasma, whole blood, and urine samples were assayed for mobocertinib, AP32960, and AP32914 concentrations using liquid chromatography-tandem mass spectrometry (Q2 Solutions, Ithaca, New York, USA). The analytical range for each analyte was 0.250 to 500 ng/mL in whole blood and plasma, and 1.00 to 1000 ng/mL in urine. […] Urine and fecal samples were assayed for total radioactivity following the IV dose of [^14C]-mobocertinib in Period 1, and whole blood, plasma, urine, and fecal samples were assayed for total radioactivity following the oral dose of [^14C]-mobocertinib in Period 2 using liquid scintillation counting (LSC; Celerion, Lincoln, Nebraska, USA; LLOQs: Period 1 urine: 0.115–0.118 ng eq/g, feces: 0.720–0.759 ng eq/g; Period 2 whole blood: 87.3–112 ng eq/g, plasma: 116–132 ng eq/mL, urine: 37.8–46.8 ng eq/g, feces: 110–336 ng eq/g across participants). Urine and fecal samples collected in Period 1 that had total radioactivity concentration equivalents below the LLOQ of the Celerion LSC assay were sent to Pharmaron for measurement by AMS (LLOQ: urine: 0.0000253–0.00111 ng eq/g; feces: 0.000404–0.0278 ng eq/g across participants). The LSC and AMS assays were not cross-validated.
PK parameters for analytes in urine and feces were calculated using SAS Version 9.4 and included the cumulative amounts and percentages of the administered radioactive dose excreted as [^14C]-mobocertinib, [^14C]-AP32960, and [^14C]-AP32914 in urine and feces following IV dosing in Period 1 and oral dosing in Period 2. Renal clearance (CLR) was calculated as the cumulative amount of radiolabeled mobocertinib, AP32960, or AP32914 recovered in urine divided by the plasma AUC to the time of the last common time point at which an analyte was quantifiable in both urine and plasma for individual participants (AUCCLR) following oral dosing of [^14C]-mobocertinib in Period 2. Mass balance was defined as the percentage of total radioactivity recovered in urine and feces combined relative to the total amount of the administered radioactive dose.

[3] = Period 2 human ADME study: plasma PK after oral solution [14C]-mobocertinib; assay type: in vivo
Description: This was a two-period, open-label, single-dose phase 1 study (NCT03811834) conducted at one clinical site (Celerion, Lincoln, Nebraska, USA) in healthy male participants. The primary objective of Period 1 was to determine the absolute bioavailability of mobocertinib following a single oral dose of 160 mg mobocertinib as capsules and a single intravenous (IV) microdose of 50 µg (~ 2 µCi) [^14C]-mobocertinib. The primary objectives of Period 2 were to (1) assess the cumulative excretion of total radioactivity in urine and feces (mass balance); (2) assess the metabolite profile of mobocertinib in plasma, urine, and feces; and (3) characterize the PK of mobocertinib, AP32960, and AP32914 in plasma, whole blood, and urine, and total radioactivity concentration equivalents in plasma and whole blood following a single oral dose of 160 mg (~ 100 µCi) [^14C]-mobocertinib as an oral solution. A sample size of 6 healthy males was selected without statistical considerations and deemed adequate to meet the study objectives. Furthermore, the sample size was limited based on clinical considerations for human ADME studies and to limit exposure to radioactivity.
as §1
as §2, with “cross-validated. […]” for “cross-validated.”

[4] = Period 2, oral solution 160 mg [14C]-mobocertinib, geometric mean (geometric CV%)
[5] = male, human, Period 2, oral solution 160 mg [14C]-mobocertinib, geometric mean (geometric CV%)
[6] = Period 2, oral solution 160 mg (~100 µCi) [14C]-mobocertinib, geometric mean

radioactive dose recovered in urine as mobocertinib, AP32960 and AP32914 combined ([1]; Period 2, oral solution 160 mg [14C]-mobocertinib)	total oral radioactive dose recovered in urine as analyte ([1]; Period 2, oral solution 160 mg [14C]-mobocertinib, geometric mean)	cumulative percentage of the radioactive dose recovered in feces (total radioactivity) [2, 6]	cumulative percentage of the radioactive dose recovered in urine (total radioactivity) [2, 6]	cumulative percentage of the radioactive dose recovered in urine and feces combined ([2]; Period 2, oral solution 160 mg (~100 µCi) [14C]-mobocertinib, geometric mean, 432-hour collection interval)	Compound	radioactive dose recovered in urine as mobocertinib, AP32960 and AP32914 combined ([1]; male, human, in vivo, po)	CL renal ([1]; male, human, in vivo, po, 160 mg)	administered radioactive dose unaccounted for ([2]; male, human, in vivo, po)	cumulative percentage of the radioactive dose recovered in feces (total radioactivity) ([2]; male, human, in vivo, po)	cumulative percentage of the radioactive dose recovered in urine (total radioactivity) ([2]; male, human, in vivo, po)	t1/2z of total radioactivity ([3]; Period 2, oral solution 160 mg [14C]-mobocertinib, exceeds duration of sampling, approximate estimate, geometric mean (geometric CV%))	CL/F [3, 4]	Molar AUC∞ ratio (analyte vs. total radioactivity) [3, 4]	tmax ([3]; Period 2, single oral solution 160 mg (~100 µCi) [14C]-mobocertinib, median (range))	AUC(0-inf) [3, 5]	AUC(0-t) [3, 5]	Cmax [3, 5]	Vd/F ([3]; male, human, Period 2, oral solution 160 mg [14C]-mobocertinib, geometric mean (geometric CV%), read-out: Vz/F)	half-life ([3]; male, human, Period 2, oral solution 160 mg [14C]-mobocertinib, geometric mean (geometric CV%), read-out: t1/2z (converted))
					C=CC(=O)Nc1cc(Nc2ncc(C(=O)OC(C)C)c(-c3cn(C)c4ccccc34)n2)c(OC)cc1N(C)CCN(C)C [Mobocertinib]	1.13%	11 mL/min	Approximately 20%	76.0%	3.57%	~11.7 days	169 (38.4) L/h	0.00172 (31.1)	6.0 (3.0–6.0) h	956 ng·h/mL	945 ng·h/mL	51 ng/mL	5560 L	1370 min
1.13%	0.39%	76.0%	3.57%	79.6%	[^14C]-mobocertinib														
